{
  "source": "patent US11492361B2",
  "about": "“Compounds useful in HIV therapy” (GlaxoSmithKline Intellectual Property Development Limited, priority 2018, dated 2022)",
  "note": "pEC50: −log10 of the molar value. Structures can show the parent of a compound that is named as a salt.",
  "data": [
    {"tested_on": "Jurkat HIV-luciferase clones", "assay": "Jurkat latency reversal assay", "format": "cell-based", "details": "Homo sapiens, Jurkat, 48 h", "description": "Jurkat HIV-luciferase clones were maintained in RPMI medium 1640 (Gibco by Life Technologies) containing 10% (vol/vol) fetal bovine serum (SAFC/Sigma-Aldrich) and 25 units/mL penicillin, 25 units/mL streptomycin (Gibco by Life Technologies), and were split 1:4 every 3 to 4 days to maintain a cell density of ˜0.3 to 1 million cells/mL. The Jurkat clones were maintained with the addition of 500 nM EFV in the medium. Three Jurkat cell clones (C16, I15, and N6), each harboring one or two integrated HIV proviruses expressing the luciferase reporter gene, were added at equal amounts for a total of 5,000 cells per well to 384-well plates containing compound titrations. Dose-response testing was performed on compounds dissolved in dimethyl sulfoxide (DMSO, Fisher Scientific, Merelbeke, Belgium) dispensed in duplicate serial 3-fold, 14-point titrations using a D300e Digital Droplet Dispenser (Hewlett-Packard) to give final assay concentrations of 10 μM to 2.1 pM in 50 μL of medium at 0.5% DMSO (vol/vol) final concentration. Cells and compound were incubated at 37° C. for 48 hours, unless otherwise indicated, followed by the addition of 20 μL of Steady-Glo® Luciferase (Promega). Luminescence resulting from the induction of the virally expressed luciferase was measured using an EnVision 2102 Multilabel Plate Reader (Perkin Elmer). Dose-response relationships were analyzed with GraphPad PRISM 6 using a four-parameter logistic regression model to calculate the concentration of compound that gives half-maximal response (EC50) and the maximal percent activation compared to the vehicle control.", "values": [
      {"compound": "CN[C@@H](C)C(=S)N[C@H]1CCS[C@H]2CC(C)(C)[C@@H](C(=O)N[C@H](COCCOCCOC[C@@H](NC(=O)[C@H]3N4C(=O)[C@@H](NC(=S)[C@H](C)NC)CCS[C@H]4CC3(C)C)c3ccccc3)c3ccccc3)N2C1=O", "note": "[compound 39, (4S,4′S,7S,7′S,9aS,9a′S)-N,N′-((1S,1′S)-((oxybis(ethane-2,1-diyl))bis(oxy))bis(1-phenylethane-2,1-diyl))bis(8,8-dimethyl-4-((S)-2-(methylamino)propanethioamido)-5-oxooctahydropyrrolo[2,1-b][1,3]thiazepine-7-carboxamide) dihydrochloride]", "pEC50": 7.29},
      {"compound": "CN[C@@H](C)C(=O)N[C@H]1CCS[C@H]2CC(C)(C)[C@@H](C(=O)N[C@H](C(=O)NCC#CC#CCNC(=O)[C@@H](NC(=O)[C@H]3N4C(=O)[C@@H](NC(=S)[C@H](C)NC)CCS[C@H]4CC3(C)C)c3ccccc3)c3ccccc3)N2C1=O", "note": "[compound 31, (4S,7S,9aS)-N-((S)-2-((6-((S)-2-((4S,7S,9aS)-8,8-dimethyl-4-((S)-2-(methylamino)propanamido)-5-oxooctahydropyrrolo[2,1-b][1,3]thiazepine-7-carboxamido)-2-phenylacetamido)hexa-2,4-diyn-1-yl)amino)-2-oxo-1-phenylethyl)-8,8-dimethyl-4-((S)-2-(methylamino)propanethioamido)-5-oxooctahydropyrrolo[2,1-b][1,3]thiazepine-7-carboxamide dihydrochloride]", "pEC50": 7.59},
      {"compound": "CN[C@@H](C)C(=O)N[C@H]1CCS[C@H]2CC(C)(C)[C@@H](C(=O)N[C@H](C(=O)N3CCN(C(=O)[C@@H](NC(=O)[C@H]4N5C(=O)[C@@H](NC(=O)[C@H](C)NC)CCS[C@H]5CC4(C)C)c4ccccc4)CC3)c3ccccc3)N2C1=O", "note": "[compound 26, (4S,4′S,7S,7′S,9aS,9a′S)-N,N′-((1S,1′S)-piperazine-1,4-diylbis(2-oxo-1-phenylethane-2,1-diyl))bis(8,8-dimethyl-4-((S)-2-(methylamino)propanamido)-5-oxooctahydropyrrolo[2,1-b][1,3]thiazepine-7-carboxamide) dihydrochloride]", "pEC50": 7.16},
      {"compound": "CN[C@@H](C)C(=S)N[C@H]1CCS[C@H]2CC(C)(C)[C@@H](C(=O)N[C@H]3c4ccccc4C[C@H]3OCCCCCCO[C@@H]3Cc4ccccc4[C@@H]3NC(=O)[C@H]3N4C(=O)[C@@H](NC(=S)[C@H](C)NC)CCS[C@H]4CC3(C)C)N2C1=O", "note": "[compound 21, (4S,4′S,7S,7′S,9aS,9a′S)-N,N′-((1S,1′S,2R,2′R)-(hexane-1,6-diylbis(oxy))bis(2,3-dihydro-1H-indene-2,1-diyl))bis(8,8-dimethyl-4-((S)-2-(methylamino)propanethioamido)-5-oxooctahydropyrrolo[2,1-b][1,3]thiazepine-7-carboxamide)]", "pEC50": 7.89},
      {"compound": "CN[C@@H](C)C(=S)N[C@H]1CCS[C@H]2CC(C)(C)[C@@H](C(=O)N[C@H](C(=O)NCC#CC#CCNC(=O)[C@@H](NC(=O)[C@H]3N4C(=O)[C@@H](NC(=S)[C@H](C)NC)CCS[C@H]4CC3(C)C)c3ccccc3)c3ccccc3)N2C1=O", "note": "[compound 32, (4S,4′S,7S,7′S,9aS,9a′S)-N,N′-((1S,1′S)-(hexa-2,4-diyne-1,6-diylbis(azanediyl))bis(2-oxo-1-phenylethane-2,1-diyl))bis(8,8-dimethyl-4-((S)-2-(methylamino)propanethioamido)-5-oxooctahydropyrrolo[2,1-b][1,3]thiazepine-7-carboxamide)]", "pEC50": 6.78},
      {"compound": "CN[C@@H](C)C(=O)N[C@H]1CCS[C@H]2CC(C)(C)[C@@H](C(=O)N[C@H]3c4ccccc4C[C@H]3OCc3ccc(CO[C@@H]4Cc5ccccc5[C@@H]4NC(=O)[C@H]4N5C(=O)[C@@H](NC(=O)[C@H](C)NC)CCS[C@H]5CC4(C)C)cc3)N2C1=O", "note": "[compound 22, (4S,4′S,7S,7′S,9aS,9a′S)-N,N′-((1S,1′S,2R,2′R)-((1,4-phenylenebis(methylene))bis(oxy))bis(2,3-dihydro-1H-indene-2,1-diyl))bis(8,8-dimethyl-4-((S)-2-(methylamino)propanamido)-5-oxooctahydropyrrolo[2,1-b][1,3]thiazepine-7-carboxamide)]", "pEC50": 8.06},
      {"compound": "CN[C@@H](C)C(=S)N[C@H]1CCS[C@H]2CC(C)(C)[C@@H](C(=O)N[C@H](COCC#CC#CCOC[C@@H](NC(=O)[C@H]3N4C(=O)[C@@H](NC(=S)[C@H](C)NC)CCS[C@H]4CC3(C)C)c3ccccc3)c3ccccc3)N2C1=O", "note": "[compound 35, (4S,4′S,7S,7′S,9aS,9a′S)-N,N′-((1S,1′S)-(hexa-2,4-diyne-1,6-diylbis(oxy))bis(1-phenylethane-2,1-diyl))bis(8,8-dimethyl-4-((S)-2-(methylamino)propanethioamido)-5-oxooctahydropyrrolo[2,1-b][1,3]thiazepine-7-carboxamide)]", "pEC50": 8.05},
      {"compound": "CN[C@@H](C)C(=O)N[C@H]1CCS[C@H]2CC(C)(C)[C@@H](C(=O)N[C@H](COCCCCCCCCCCOC[C@@H](NC(=O)[C@H]3N4C(=O)[C@@H](NC(=O)[C@H](C)NC)CCS[C@H]4CC3(C)C)c3ccccc3)c3ccccc3)N2C1=O", "note": "[compound 60, (4S,4′S,7S,7′S,9aS,9a′S)-N,N′-((1S,1′S)-(decane-1,10-diylbis(oxy))bis(1-phenylethane-2,1-diyl))bis(8,8-dimethyl-4-((S)-2-(methylamino)propanamido)-5-oxooctahydropyrrolo[2,1-b][1,3]thiazepine-7-carboxamide) dihydrochloride]", "pEC50": 8.46},
      {"compound": "CN[C@@H](C)C(=O)N[C@H]1CCS[C@H]2CC(C)(C)[C@@H](C(=O)N[C@H](COCCCCCCCCCCCCOC[C@@H](NC(=O)[C@H]3N4C(=O)[C@@H](NC(=O)[C@H](C)NC)CCS[C@H]4CC3(C)C)c3ccccc3)c3ccccc3)N2C1=O", "note": "[compound 61, (4S,4′S,7S,7′S,9aS,9a′S)-N,N′-((1S,1′S)-(dodecane-1,12-diylbis(oxy))bis(1-phenylethane-2,1-diyl))bis(8,8-dimethyl-4-((S)-2-(methylamino)propanamido)-5-oxooctahydropyrrolo[2,1-b][1,3]thiazepine-7-carboxamide)]", "pEC50": 7.93},
      {"compound": "CN[C@@H](C)C(=S)N[C@H]1CCS[C@H]2CC(C)(C)[C@@H](C(=O)N[C@H]3c4ccccc4C[C@H]3OCC#CC#CCO[C@@H]3Cc4ccccc4[C@@H]3NC(=O)[C@H]3N4C(=O)[C@@H](NC(=S)[C@H](C)NC)CCS[C@H]4CC3(C)C)N2C1=O", "note": "[compound 15, (4S,4′S,7S,7′S,9aS,9a′S)-N,N′-((1S,1′S,2R,2′R)-(hexa-2,4-diyne-1,6-diylbis(oxy))bis(2,3-dihydro-1H-indene-2,1-diyl))bis(8,8-dimethyl-4-((S)-2-(methylamino)propanethioamido)-5-oxooctahydropyrrolo[2,1-b][1,3]thiazepine-7-carboxamide)]", "pEC50": 7.82}
    ]}
  ]
}
